Measurements reported in patent US12595261B2, “P2X3 and/or P2X2/3 receptor antagonist, pharmaceutical composition containing same, and use thereof” (BEIJING TIDE PHARMACEUTICAL CO., LTD., priority 2019, dated 2026).

What was measured:
Human P2X2/3 receptor = target: T1, Human P2X2/3 receptor (Homo sapiens, UniProt P56373+Q9UBL9); assay: Inhibitory activity on human P2X2/3 receptor (FLIPR calcium 6 assay, HEK293-P2X2/3 cells, agonist α,β-MeATP); type: cell-based; conditions: HEK293-P2X2/3 stably expressing cell line, FLIPR Tetra
T1 construct: expressed in transfected cells; host or cells: HEK293 (stably expressing)
T1 sequence (P56373 1-397): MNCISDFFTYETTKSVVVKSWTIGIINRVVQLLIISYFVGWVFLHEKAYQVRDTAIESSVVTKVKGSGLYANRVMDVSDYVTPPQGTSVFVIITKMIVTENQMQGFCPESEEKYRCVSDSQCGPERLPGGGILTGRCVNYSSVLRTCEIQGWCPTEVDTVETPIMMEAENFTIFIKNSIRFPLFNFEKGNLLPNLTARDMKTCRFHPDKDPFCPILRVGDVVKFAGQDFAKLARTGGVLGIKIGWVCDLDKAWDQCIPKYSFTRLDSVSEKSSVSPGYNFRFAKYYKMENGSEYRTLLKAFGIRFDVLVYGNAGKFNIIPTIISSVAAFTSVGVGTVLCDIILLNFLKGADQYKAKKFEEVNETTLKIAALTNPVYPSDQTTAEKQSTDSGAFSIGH
T1 sequence (Q9UBL9 1-471): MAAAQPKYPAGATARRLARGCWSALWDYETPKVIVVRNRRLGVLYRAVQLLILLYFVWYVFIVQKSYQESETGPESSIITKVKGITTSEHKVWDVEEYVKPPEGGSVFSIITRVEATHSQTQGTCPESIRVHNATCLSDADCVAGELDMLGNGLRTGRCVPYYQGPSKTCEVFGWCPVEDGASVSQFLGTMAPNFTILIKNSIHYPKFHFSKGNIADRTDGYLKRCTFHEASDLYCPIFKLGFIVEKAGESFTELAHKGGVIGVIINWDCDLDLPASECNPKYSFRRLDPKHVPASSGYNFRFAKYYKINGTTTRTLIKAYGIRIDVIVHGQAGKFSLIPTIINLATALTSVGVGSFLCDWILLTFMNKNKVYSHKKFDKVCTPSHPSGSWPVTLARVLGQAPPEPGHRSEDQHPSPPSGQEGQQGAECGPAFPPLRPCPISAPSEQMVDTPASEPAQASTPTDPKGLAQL
Protocol: (§1) Biological Assay: Determination of the Inhibitory Activity of the Compounds on Human P2X3 and P2X2/3 Receptors
(§2) Cells were seeded into a poly-D-lysine-coated 384-well cell culture plate (Corning) at a density of 11,000 cells/well/25 μL of cell inoculation medium, and were cultured in a cell incubator overnight. On the day of the test, the calcium 6 dye was diluted to a 2× concentration with an assay buffer, 25 μL of the 2× calcium 6 dye was added to the 384-well cell culture plate, which was incubated at 37° C. for 2 hours, and then placed at room temperature for further use. The test compound and the agonist, α,β-MeATP were diluted to a 7× concentration with the assay buffer, 10 μL of the 7× test compound was added to the 384-well cell culture plate, which was incubated at room temperature for 15 minutes, and 10 μL of the 7× α,β-MeATP was transferred into the 384-well cell culture plate. […]

Human P2X3 receptor = target: T2, Human P2X3 receptor (Homo sapiens, UniProt P56373); assay: Inhibitory activity on human P2X3 receptor (FLIPR calcium 6 assay, HEK293-P2X3 cells, agonist α,β-MeATP); type: cell-based; conditions: HEK293-P2X3 stably expressing cell line, FLIPR Tetra
T2 construct: expressed in transfected cells; host or cells: HEK293 (stably expressing)
T2 sequence (P56373 1-397): T1 sequence (P56373 1-397)
Protocol: as §1, §2

IC50 (Human P2X2/3 receptor) | IC50 (Human P2X3 receptor) | Structure (SMILES)
100 nM | 60.5 nM | CC(C)c1cnc2c(c1Oc1cnc(N)nc1N)CCN2 [Compound C1, 5-((5-isopropyl-2,3-dihydro-1H-pyrrolo[2,3-b]pyridin-4-yl)oxy)pyrimidin-2,4-diamine]
80 nM | 86 nM | CC(C)c1cnc2[nH]ccc2c1Oc1cnc(N)nc1N [Compound C4, 5-((5-isopropyl-1H-pyrrolo[2,3-b]pyridin-4-yl)oxy)pyrimidin-2,4-diamine]
